For one experiment, the system named is Aspergillus niger. The experiment is described as follows: Antimicrobial activity against Aspergillus niger. It counts as functional, organism-based.
The subject of a further experiment is Cryptococcus neoformans. The experiment is described as follows: Antimicrobial activity against Cryptococcus neoformans. The class given is functional, organism-based.
Experiment [1] deals with Trichophyton mentagrophytes. The experiment is described as follows: Antimicrobial activity against Trichophyton mentagrophytes. It counts as functional, organism-based.
In another experiment the test system is P388. As to the kind of experiment: Cytotoxicity against mouse P388 cells. It counts as functional, cell-based.
The subject of the next experiment is Candida albicans. As to the kind of experiment: Antimicrobial activity against Candida albicans. The class given is functional, organism-based.
The subject of another experiment is KB. The experiment is described as follows: Cytotoxicity against human KB cells. The class given is functional, cell-based.

Values after ≈ are worked out from the molar mass of the structure shown.

In general, IC50 refers to the point on the concentration scale where inhibition reaches its midpoint. Low readings indicate greater potency, high ones weaker potency.

In the case of `CCC(C)C(=O)C1=C(O)C(C)=C2O[C@@H](C(C)(C)O)C[C@@]2(C/C=C(\C)CCC=C(C)C)C1=O` (stereo partly specified) [YOJIRONIN E], the IC50 in the experiment on Aspergillus niger worked out at 16 µg/mL (≈ 36 µM); in the experiment with Cryptococcus neoformans it was 4 µg/mL (≈ 9 µM); in experiment [1] it was 4 µg/mL (≈ 9 µM); with P388 it was 3.7 µg/mL (≈ 8.32 µM); in the experiment with Candida albicans, 4 µg/mL (≈ 9 µM); with KB, 5 µg/mL (≈ 11.2 µM).

The values are drawn from ChEMBL document CHEMBL1821553, “Yojironins E-I, prenylated acylphloroglucinols from Hypericum yojiroanum” (Bioorg Med Chem Lett, 2011).
